# Measurements: US9394299B2, “Rilyazine derivatives and compositions for the treatment of cancer” (Warner Babcock Institute for Green Chemistry, LLC, priority 2013, dated 2016)
# Entries after “also recorded” stand apart in the source; their conditions may differ.
# Experiments:
# Type in all cases: cell-based
# Colo-205 cells = assay: MTT cell proliferation assay, Colo-205; settings: 72 h-exposure, 30-0.041 μM
# Experimental: In vitro characterizing of the effects of rilyazine analogs on cell proliferation and apoptosis in the paired epithelial/mesenchymal lines (Colo205/Colo-R, DLD/DLD-SNAIL and MCF7/MCF7-WISP) was performed in an independent laboratory.
# The Dose Preparation is based on a reconstitute in DMSO. The Concentration of the stock solution is 100 mM. Storage of the stock solution is under −80° C.
# Working drug solution of rilyazine analogs: A stock solution of 100 mM OTX015 in DMSO was prepared and stored at −80° C. For growth inhibition studies, dilution series were prepared by (1) diluting stock solution into DMSO, then (2) diluting 1:300 in culture medium supplemented with 10% FBS giving a final concentration in 0.3% DMSO in the 96-well plates.
# Cell lines. Cells lines were maintained in RPMI 1640 (PAA Laboratories, France) supplemented with 10% fetal bovine serum (FBS; PAA Laboratories, France), 2 mM glutamine (PAA Laboratories, France), 100 units/ml penicillin and 100 μg/ml streptomycin (PAA Laboratories, France). Cells were free of Mycoplasma.
# Proliferation assays. Cell proliferation was determined using the MTT assay (3-[4,5-dimethylthiazol-2-yl]-2,5-diphenyltetrazolium bromide; Sigma-Aldrich, St. Louis, Mo.). […] After incubation, the supernatant was discarded, the cell pellet was resuspended in 0.1 mL DMSO, and the absorbance was measured at 560 nm using a microplate reader (Thermo, France). […]
# COLO 205 (Colon Cancer) = assay: NCI five point dosing, COLO 205; settings: Homo sapiens, read-out: LC50 (the source's name)
# Experimental: (§1) RL-4 was evaluated against the 60 cell panel at five concentration levels, 10^−8 M, 10^−7 M, 10^−6 M, 10^−5 M and 10^−4 M.
# The human tumor cell lines of the cancer screening panel are grown in RPMI 1640 medium containing 5% fetal bovine serum and 2 mM L-glutamine. Cells are inoculated into 96 well microtiter plates in 100 μL at plating densities ranging from 5,000 to 40,000 cells/well depending on the doubling time of individual cell lines. After cell inoculation, the microtiter plates are incubated at 37° C., 5% CO2, 95% air and 100% relative humidity for 24 h prior to addition of experimental drugs. […]
# Following drug addition, the plates are incubated for an additional 48 h at 37° C., 5% CO2, 95% air, and 100% relative humidity. […] Bound stain is subsequently solubilized with 10 mM trizma base, and the absorbance is read on an automated plate reader at a wavelength of 515 nm. […]
# The percentage growth is calculated at each of the five drug concentrations levels using the seven absorbance measurements, namely absorbance at time zero (Tz), absorbance of control after incubation (C), and absorbance of test sample after incubation in the presence of drug at each of the five concentration levels (Ti). The Growth Percent is calculated as it was for the 1 dose assay: Growth Percent=[(Ti−Tz)/(C−Tz)]×100 for cell line/drug combinations for which Ti≧Tz. […]
# [1] = tested on: 60 cell lines (human tumor cell lines of the cancer screening panel); assay: NCI 60 cell line screening, five point dosing (SRB)
# Experimental: as §1
# The human tumor cell lines of the cancer screening panel are grown in RPMI 1640 medium containing 5% fetal bovine serum and 2 mM L-glutamine. Cells are inoculated into 96 well microtiter plates in 100 μL at plating densities ranging from 5,000 to 40,000 cells/well depending on the doubling time of individual cell lines. After cell inoculation, the microtiter plates are incubated at 37° C., 5% CO2, 95% air and 100% relative humidity for 24 h prior to addition of experimental drugs.
# After 24 h, two plates of each cell line are fixed in situ with TCA, to represent a measurement of the cell population for each cell line at the time of drug addition Time Zero (Tz). Experimental drugs are solubilized in dimethyl sulfoxide:glycerol 9:1 at 400-fold the desired final maximum test concentration and stored frozen at −70° C. prior to use. At the time of drug addition, an aliquot of frozen concentrate is thawed and diluted to twice the desired final maximum test concentration with complete medium containing 50 μg/ml gentamicin. Additional four, 10-fold or ½ log serial dilutions are made to provide a total of five drug concentrations plus control. Aliquots of 100 μl of these different drug dilutions are added to the appropriate microtiter wells already containing 100 μl of medium, resulting in the required final drug concentrations.
# Positive control is prepared by adding the known anti-tumor agent adriamycin, NSC 123127, prepared and stored the same as the compounds for testing.
# Following drug addition, the plates are incubated for an additional 48 h at 37° C., 5% CO2, 95% air, and 100% relative humidity. For adherent cells, the assay is terminated by the addition of cold TCA. Cells are fixed in situ by the gentle addition of 50 μl of cold 50% (w/v) TCA (final concentration, 10% TCA) and incubated for 60 minutes at 4° C. The supernatant is discarded, and the plates are washed five times with tap water and air dried. Sulforhodamine B (SRB) solution (100 μl) at 0.4% (w/v) in 1% acetic acid is added to each well, and plates are incubated for 10 minutes at room temperature. After staining, unbound dye is removed by washing five times with 1% acetic acid and the plates are air dried. Bound stain is subsequently solubilized with 10 mM trizma base, and the absorbance is read on an automated plate reader at a wavelength of 515 nm. For suspension cells, the methodology is the same except that the assay is terminated by fixing settled cells at the bottom of the wells by gently adding 50 μl of 80% TCA (final concentration, 16% TCA).
# The percentage growth is calculated at each of the five drug concentrations levels using the seven absorbance measurements, namely absorbance at time zero (Tz), absorbance of control after incubation (C), and absorbance of test sample after incubation in the presence of drug at each of the five concentration levels (Ti). The Growth Percent is calculated as it was for the 1 dose assay: Growth Percent=[(Ti−Tz)/(C−Tz)]×100 for cell line/drug combinations for which Ti≧Tz. Growth Percent=[(Ti−Tz)/Tz]×100 for cell line/drug combinations for which Ti<Tz.
# For the 5-dose 60 cell testing, three dose-response parameters are determined for each experimental agent. These parameters are Growth Inhibition of 50% (GI50), drug concentration resulting in Total Growth Inhibition (TGI), and concentration resulting in 50% lethality (LC50).
# Growth inhibition of 50% (GI50) is determined as the drug concentration at which Growth Percent=[(Ti−Tz)/(C−Tz)]×100=50. GI50 is the drug concentration resulting in a 50% reduction in the net protein increase compared to the increase in protein in control cells (as measured by SRB staining) during the drug incubation.
# The drug concentration resulting in total growth inhibition (TGI) is determined as the drug concentration at which Ti=Tz, which corresponds to a Growth Percent of zero. […]
# [2] = five point dosing, 60 cell lines
smiles,measurement,setting,value
"S=c1c2ncccc2c(-c2ccccn2)nn1C1CCCCC1 [RL-4, 7-cyclohexyl-5-(pyridin-2-yl)pyrido[2,3-d]pyridazine-8(7H)-thione]",anti-proliferative effects (in words),Colo-205 cells,dose-dependent anti-proliferative effects
same,CC50,COLO 205 (Colon Cancer),85.8 µM
same,GI50,"[1]; Homo sapiens, five point dosing 10^−8 to 10^−4 M, mean of 60 cell lines, read-out: Mean GI50 for all 60 cell lines",20 µM
same,CC50,"[1]; Homo sapiens, five point dosing up to 10^−4 M, read-out: LC50 for all other cell lines (except COLO 205)",> 100 µM
same,toxicity (in words),[1]; concentrations up to 10^−4 M,not toxic at the concentrations tested; also recorded: not observed
same,growth inhibition / anti-proliferative efficacy (in words),"[1]; five point dosing 10^−8 to 10^−4 M, 60 cell lines",significant growth inhibition across all 60 cell lines; also recorded: anti-proliferative efficacy across a range of 60 cell lines
same,log10GI50 Delta,[1]; [2],1.45
same,log10GI50 Mean,[1]; [2],−5.0
same,log10GI50 Range,[1]; [2],2.45
same,"number of cell lines in which total growth inhibition (growth percent=0, TGI) was achieved","[1]; within dosage range tested, of 60 cell lines",eight
